The text below walks through data of PubChem BioAssay (NCI).

Some test systems named below: ACHN renal; OVCAR-8 ovarian; UACC-257 melanoma; OVCAR-4 ovarian; 786-0 renal; SF-295 CNS; MOLT-4 leukemia; OVCAR-5 ovarian; SNB-19 CNS; KM12 colon.
Holding throughout (assay): growth of human tumour cells (NCI), 48 h

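96-well plates; 48 h exposure; 5 concentrations. Endpoints by linear interpolation between flanking doses. Not reached: highest tested concentration assigned. GI50 is the concentration that inhibits growth by half. TGI marks complete inhibition of growth.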

As to `COc1ccc(C(c2c(O)c3ccccc3n(C)c2=O)c2c(O)c3ccccc3n(C)c2=O)cc1`, the TGI was greater than 100 µM in the assay on ACHN renal; greater than 100 µM in the assay on OVCAR-8 ovarian; 46.4 µM in the assay with UACC-257 melanoma; greater than 100 µM in the assay with OVCAR-4 ovarian; greater than 100 µM in the assay with 786-0 renal; greater than 100 µM in the assay with SF-295 CNS. The TGI in the assay with MOLT-4 leukemia, in the assay with OVCAR-5 ovarian, in the assay on SNB-19 CNS and in the assay with KM12 colon was greater than 100 µM in each case.
As for `O=C1OC(O)C(Oc2ccc(Cl)cc2)=C1Cl` (stereo not given), the TGI with ACHN renal, in the assay on OVCAR-8 ovarian, in the assay with UACC-257 melanoma, with OVCAR-4 ovarian, with 786-0 renal and in the assay on SF-295 CNS was greater than 100 µM in each case. The TGI in the assay on MOLT-4 leukemia, in the assay with OVCAR-5 ovarian, in the assay with SNB-19 CNS and in the assay on KM12 colon was greater than 100 µM each time.
Turning to `NCc1nnn(Cc2ccccc2)c1N`, the TGI with ACHN renal, with OVCAR-8 ovarian, in the assay with UACC-257 melanoma, in the assay on OVCAR-4 ovarian, in the assay on 786-0 renal and with SF-295 CNS was greater than 100 µM in each case. Besides, the TGI with MOLT-4 leukemia, with OVCAR-5 ovarian, with SNB-19 CNS and in the assay on KM12 colon was greater than 100 µM throughout.
For `COc1ccc(/C=C/c2n[nH]c3ccc(N4CCOC4=O)cc23)cc1`, the GI50 with ACHN renal was 2.64 µM; in the assay on OVCAR-8 ovarian, 2.31 µM; with UACC-257 melanoma, 3.6 µM; with OVCAR-4 ovarian, 5.06 µM; in the assay on 786-0 renal it was 3.76 µM; in the assay with SF-295 CNS, 3.44 µM. Also, the GI50 is 1.46 µM with MOLT-4 leukemia, 3.16 µM in the assay with OVCAR-5 ovarian, 3.12 µM in the assay on SNB-19 CNS and 1.02 µM with KM12 colon. The TGI in the assay with ACHN renal is 23.2 µM; in the assay with OVCAR-8 ovarian, greater than 100 µM; in the assay with UACC-257 melanoma, 9.3 µM; in the assay with OVCAR-4 ovarian, greater than 100 µM; with 786-0 renal it was greater than 100 µM; with SF-295 CNS, 29.2 µM. Further, the TGI is 9.54 µM in the assay on MOLT-4 leukemia, 59.8 µM with OVCAR-5 ovarian, greater than 100 µM with SNB-19 CNS and 27.1 µM with KM12 colon.
Consider `COc1ccc(/C(C)=N/OC(=O)c2c(-c3ccccc3Cl)noc2C)cc1CN1CCOCC1`, for which the TGI in the assay on ACHN renal is 32.8 µM; with OVCAR-8 ovarian, greater than 100 µM; with UACC-257 melanoma, 46.6 µM; in the assay with OVCAR-4 ovarian, greater than 100 µM; in the assay on 786-0 renal it was 59.2 µM; with SF-295 CNS, 32.8 µM. Besides, the TGI is greater than 100 µM in the assay with MOLT-4 leukemia, 45.9 µM in the assay on OVCAR-5 ovarian, 46.2 µM in the assay with SNB-19 CNS and 70.5 µM in the assay with KM12 colon.
Consider `COC(=O)CCC/C=C\C[C@H]1C=CC(=O)/C1=C/C[C@@H](O)C/C=C\CC(F)(F)F`, for which the GI50 in the assay with ACHN renal is 1.95 µM; with OVCAR-8 ovarian, 3.3 µM; in the assay with UACC-257 melanoma, 2.54 µM; in the assay with OVCAR-4 ovarian, 5.09 µM; with 786-0 renal it was 1.85 µM; with SF-295 CNS it was 2.51 µM. Besides, the GI50 with MOLT-4 leukemia was 0.773 µM; with OVCAR-5 ovarian, 3.42 µM; in the assay with SNB-19 CNS, 2.99 µM; in the assay on KM12 colon, 1.97 µM. In addition, the TGI with ACHN renal came to 3.97 µM; with OVCAR-8 ovarian, 13.4 µM; in the assay with UACC-257 melanoma it was 7.82 µM; in the assay with OVCAR-4 ovarian, 18.6 µM; in the assay with 786-0 renal, 3.57 µM; in the assay with SF-295 CNS it was 5.82 µM. In addition, the TGI in the assay with MOLT-4 leukemia is 4.22 µM; in the assay on OVCAR-5 ovarian, 9.65 µM; in the assay on SNB-19 CNS, 14.2 µM; in the assay on KM12 colon, 5.65 µM.
For `O=c1c2ccccc2c2nc3ccccc3nc2n1C1CCCCC1`, the TGI in the assay on ACHN renal, with OVCAR-8 ovarian, in the assay with UACC-257 melanoma, in the assay on OVCAR-4 ovarian, in the assay with 786-0 renal and in the assay on SF-295 CNS was greater than 100 µM in each case. The TGI with MOLT-4 leukemia, with OVCAR-5 ovarian, with SNB-19 CNS and in the assay with KM12 colon was greater than 100 µM in each case.
On to `O=C1C(=O)C(Br)(Br)C(Br)=C1Br`, for which the TGI in the assay on ACHN renal is 29.6 µM; in the assay with OVCAR-8 ovarian, 36.6 µM; in the assay on UACC-257 melanoma it was 43.6 µM; in the assay on OVCAR-4 ovarian, 69.6 µM; in the assay with 786-0 renal, 32.1 µM; with SF-295 CNS, greater than 100 µM. Further, the TGI in the assay on MOLT-4 leukemia is 63 µM; in the assay on OVCAR-5 ovarian, 26.8 µM; with SNB-19 CNS, greater than 100 µM; in the assay on KM12 colon, 28.6 µM.
`N#CCCN(c1ccc(-c2nnc(NC(=O)CNNC(=O)CC(=O)Nc3ccccc3)s2)cc1)S(=O)(=O)c1ccccc1`: the TGI in the assay on ACHN renal, with OVCAR-8 ovarian, in the assay on UACC-257 melanoma, in the assay on OVCAR-4 ovarian, in the assay with 786-0 renal and in the assay on SF-295 CNS was greater than 100 µM each time. The TGI in the assay with MOLT-4 leukemia, in the assay on OVCAR-5 ovarian, with SNB-19 CNS and with KM12 colon was greater than 100 µM throughout.
As to `NS(=O)(=O)c1ccc(N2N=C3c4ccccc4CC3C2c2ccc(Cl)cc2)cc1` (stereo not given), the GI50 in the assay on ACHN renal is 17.5 µM; in the assay on OVCAR-8 ovarian it was 11.8 µM; in the assay with UACC-257 melanoma, 11.4 µM; with OVCAR-4 ovarian it was 9.77 µM; in the assay on 786-0 renal it was 6.28 µM; in the assay with SF-295 CNS, 16.3 µM. Further, the GI50 is 7.58 µM in the assay on MOLT-4 leukemia, 15.9 µM in the assay on OVCAR-5 ovarian, 17.3 µM in the assay with SNB-19 CNS and 5.54 µM in the assay with KM12 colon. Moreover, the TGI in the assay on ACHN renal amounted to 31.6 µM; in the assay on OVCAR-8 ovarian, 33.4 µM; with UACC-257 melanoma, 32.6 µM; with OVCAR-4 ovarian it was 30.6 µM; with 786-0 renal it was 24.9 µM; in the assay on SF-295 CNS, 34.2 µM. The TGI with MOLT-4 leukemia was greater than 100 µM; in the assay with OVCAR-5 ovarian, 56.5 µM; in the assay on SNB-19 CNS, greater than 100 µM; with KM12 colon, 49.8 µM.
Regarding `O=[N+]([O-])c1nccn1COCCF`, the TGI with ACHN renal, with OVCAR-8 ovarian, in the assay with UACC-257 melanoma, in the assay on OVCAR-4 ovarian, in the assay on 786-0 renal and in the assay on SF-295 CNS was greater than 100 µM in each case. Besides, the TGI in the assay with MOLT-4 leukemia, in the assay with OVCAR-5 ovarian, in the assay with SNB-19 CNS and in the assay with KM12 colon was greater than 100 µM in each case.
